Tests used:
B16 melanoma cells [1] = experiment: Combination test with existing tyrosinase inhibitors (method of Test Example 1); type: cell-based; details: 0.4 ppm, alone; Table 2, combined use with arbutin
Procedure: B16 melanoma cells were suspended (10,000 cells/ml) in DMEM (Dulbecco's modified eagle medium) containing 10% FBS (fetal bovine serum) and 8 ml of the suspension was added to a cell culture bottle with a 25 cm^2 bottom surface area, and cultured at 37° C. in the presence of 5% carbon dioxide for 3 days. After 3 days of culture, the old medium was exchanged with 8 ml of fresh medium. 40 micro-liters of a sample solution, in which compounds of the present invention had been dissolved in ethanol to give a final concentration shown in the table, were further added thereto. As the control, ethanol only was added. After the medium change, the cells were further cultured for 3 days under the same conditions. […] Degree of cell proliferation (%)=(number of cells in sample)/(number of cells in control)×100 […] Using a calibration curve of synthetic melanin, the amount of melanin/million cells was determined from the OD and the degree of inhibition of melanin production was determined according to the following equation: Degree of inhibition of melanin (%)=(amount of melanin in control−amount of melanin in sample)/(amount of melanin in control)×100 […]

[2] = system: mushroom-derived tyrosinase; experiment: Mushroom tyrosinase inhibition test; type: biochemical; details: 25 ppm, L-tyrosine substrate, 37° C. 30 minutes
Procedure: After reaction, the absorbance (OD) at a wavelength of 490 nm was measured and the degree of inhibition of tyrosinase reaction was determined according to the following equation. […] Sample: The buffer, the enzyme solution, the substrate solution and the sample solution Sample-free: The buffer, the enzyme solution and the substrate solution Blank: The buffer and the enzyme solution

[3] = target: T1, tyrosinase in B16 melanoma cells (Mus musculus, UniProt P11344); experiment: Test of tyrosinase inhibition in B16 melanoma cells (crude enzyme solution); type: biochemical; details: 25 ppm, L-DOPA substrate, 37° C. 3 hours
T1 construct: the resulting supernatant was used as a crude enzyme solution; endogenous in cells; host or cells: B16 melanoma cells (Triton X100 lysate, sonicated, 11,000 G supernatant)
T1 sequence (P11344 19-533): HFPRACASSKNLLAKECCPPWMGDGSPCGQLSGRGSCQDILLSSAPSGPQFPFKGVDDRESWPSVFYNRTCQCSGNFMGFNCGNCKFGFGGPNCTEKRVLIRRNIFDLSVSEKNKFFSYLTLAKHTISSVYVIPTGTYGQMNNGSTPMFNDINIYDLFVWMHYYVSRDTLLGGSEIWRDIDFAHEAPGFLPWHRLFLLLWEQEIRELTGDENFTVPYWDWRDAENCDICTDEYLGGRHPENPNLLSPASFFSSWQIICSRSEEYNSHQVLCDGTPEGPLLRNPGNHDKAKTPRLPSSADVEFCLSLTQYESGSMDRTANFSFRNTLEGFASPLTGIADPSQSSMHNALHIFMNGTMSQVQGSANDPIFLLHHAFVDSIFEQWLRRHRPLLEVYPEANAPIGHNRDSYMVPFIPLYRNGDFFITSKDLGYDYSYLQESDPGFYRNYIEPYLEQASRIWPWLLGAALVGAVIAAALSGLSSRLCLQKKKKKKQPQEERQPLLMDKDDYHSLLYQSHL
Procedure: B16 melanoma cells were cultured for 3 days in DMEM containing 10% FBS at 37° C. in the presence of 5% carbon dioxide. The cells proliferated after culture were recovered by treatment with trypsin, then suspended in PBS containing 0.1% Triton X100 at a density of ten million cells/ml and disrupted by sonication. The product obtained was centrifuged at 11,000 G for 20 minutes, and the resulting supernatant was used as a crude enzyme solution. Added thereto was 0.2 ml of crude enzyme solution. The mixture was preliminarily kept at 37° C. for 5 minutes, and 0.2 ml L-DOPA solution (0.5 mg/ml) was added as the substrate, and the mixture was kept at 37° C. for 3 hours.

B16 melanoma cells [4] = experiment: Melanin formation prevention test (melanin production and cell proliferation); type: cell-based; details: for Degree of cell proliferation: relative to ethanol control
Procedure: B16 melanoma cells were suspended (10,000 cells/ml) in DMEM (Dulbecco's modified eagle medium) containing 10% FBS (fetal bovine serum) and 8 ml of the suspension was added to a cell culture bottle with a 25 cm^2 bottom surface area, and cultured at 37° C. in the presence of 5% carbon dioxide for 3 days. After 3 days of culture, the old medium was exchanged with 8 ml of fresh medium. 40 micro-liters of a sample solution, in which compounds of the present invention had been dissolved in ethanol to give a final concentration shown in the table, were further added thereto. As the control, ethanol only was added. After the medium change, the cells were further cultured for 3 days under the same conditions. After culture was finished, the medium was removed, and the cells were recovered by treatment with trypsin (DIFCO) and suspended in 4 ml of phosphate buffered saline (PBS) and a predetermined amount ( 1/40) of this suspension was used to measure the number of cells in a Coultar counter (Sysmex Co.) to determine the degree of cell proliferation.
The degree of cell proliferation was determined according to the following equations:
Degree of cell proliferation (%)=(number of cells in sample)/(number of cells in control)×100
The remainder of the cell suspension was centrifuged and then washed with 5% trichloroacetic acid, then with ethanol/ethyl ether (3:1 by volume), and with ethyl ether and the cells were dried, and 2N—NaOH was added thereto to dissolve (melanin in) the cells under heating at 70° C. and measured for its optical density (OD) at 420 nm. Using a calibration curve of synthetic melanin, the amount of melanin/million cells was determined from the OD and the degree of inhibition of melanin production was determined according to the following equation:
Degree of inhibition of melanin (%)=(amount of melanin in control−amount of melanin in sample)/(amount of melanin in control)×100

[5] = system: streptococcus mutans JCM 5157; experiment: Anti-bacterial activity test, liquid medium dilution method (anaerobic); type: cell-based; details: Su-1, anaerobic
Procedure: (§1) The aerobic microorganisms were examined in an agar medium dilution method and the anaerobic microorganisms were examined in a liquid medium dilution method under anaerobic culture conditions. 10 ml GAM broth (Nissui) was introduced into each test tube equipped with a cap and sterilized. 100 micro-liter of the sample solution prepared for agar medium dilution method was added to each test tube and lightly stirred, and 100 micro-liter test microbial solution (10^7 CFU/ml) was added thereto, then capped and incubated at 37° C. The test microbial solution was prepared by introducing 100 micro-liter stock microbial solution into 10 ml GAM broth in a test tube then capping the tube and fermenting it at 37° C. overnight.

[6] = system: Propinibadterium Acnes ATCC 12818; experiment: as above; type: cell-based; details: Pa-1, anaerobic
Procedure: as §1

[7] = system: Malassezia furfur IFO 0656; experiment: Anti-bacterial activity test, agar medium dilution method; type: cell-based; details: Mf-1
Procedure: (§2) The aerobic microorganisms were examined in an agar medium dilution method and the anaerobic microorganisms were examined in a liquid medium dilution method under anaerobic culture conditions. Muller Hinton agar medium (DIFCO) was heated and dissolved and 10 ml of the medium was introduced into each test tube, sterilized and used. The sample was prepared by dissolving in ethanol and the resulting ethanol solution was diluted 2-fold serially with ethanol, and 100 micro-liters of sample solution were added to 10 ml of each dissolved agar medium, then stirred, introduced into a Petri dish of 9 cm in diameter, and solidified at room temperature. Each test microorganism in a well grown slant was inoculated via one loop of platinum into 10 ml Muller Hinton broth (DIFCO) and cultured with shaking at 27° C. for 24 hours and used as a microbial fluid. This fluid was diluted at 10^8 CFU (Colony forming unit)/ml, and 5 micro-liters of the diluted fluid were inoculated onto the agar and cultured at 37° C. overnight. Inoculation of the microorganism was conducted using microplanter MIT-P for 27 tubes test microorganisms (Sakuma Seisakusho K. K.).

[8] = system: Corynebacterium xerosis JCM 1324; experiment: as above; type: cell-based; details: Cx-2
Procedure: as §2

[9] = system: Bacillus subtilis PCI 219 IFO 3134; experiment: as above; type: cell-based; details: Bs-1
Procedure: as §2

[10] = system: Staphylococcus epidermidis var. H-6; experiment: as above; type: cell-based; details: Se-2
Procedure: as §2

[11] = system: Corynebacterium minutissimum ATCC 23348; experiment: as above; type: cell-based; details: Cm-1
Procedure: as §2

[12] = system: Staphylococcus aureus IFO 12732; experiment: as above; type: cell-based; details: Sa-3
Procedure: as §2

[13] = system: Staphylococcus epidermidis JCM 2414; experiment: as above; type: cell-based; details: Se-1
Procedure: as §2

[14] = system: UV Ray-induced Pigment Stains; experiment: Effect of diminishing UV ray-induced pigment stains in guinea pigs; type: in vivo, brown guinea pigs; details: 7% ethanol solution applied once per day on UVB-irradiated skin
From the text: Hair was carefully removed from the back of 5 brown guinea pigs, and a shielding plate provided with four 2.5 cm×2.5 cm openings was attached to the portion from which hair had been removed, followed by irradiating it 3 times every second day with UVB rays at an intensity of 450 mj/cm^2. Immediately after the irradiation of UVB rays, a 70 micro-liters sample was applied onto the irradiated site once per day for 35 days, and the amount of pigment diminished by this treatment was examined on the days shown in Table 5. […]
For evaluation of the activity, each application site was measured by a calorimeter (CR200b, Minolta Co Ltd.). ΔLx is the difference between the L value after the sample application (value changing with time) and the L value of the portion before the sample application started, and then ΔΔL value was determined by subtracting ΔLo value (i.e. the value similarly determined for the portion to which ethanol was applied) from the ΔLx value. The ΔΔL value can be determined according to the equation: […]
Lo: L value of the test site (site to which the sample was applied) before sample application
Lx : L value of the test site (site to which the sample was applied) on Day x after sample application
L′o : L value of the control site (site to which ethanol was applied) before ethanol application
L′x : L value of the control site (site to which ethanol was applied) on Day x after ethanol application

[15] = system: Human-derived normal skin fibroblasts (NB1RGB); experiment: Test of cell activating activity (fibroblast proliferation); type: cell-based; details: 8.0 ppm, relative to ethanol control (100)
Procedure: Human-derived normal skin fibroblasts (NB1RGB: Institute of Physical and Chemical Research) were suspended into DMEM containing 10% FBS to give a concentration of 20,000 cells/ml, and 5 ml each of this cellular suspension was introduced into each of 25 cm^2 bottles, cultured at 37° C. in the presence of 5% carbon dioxide for 24 hours. To each bottle, was added 10 micro-liter (0.2%) of the ethanol solution containing the compound to give the final concentration shown in Table 8. The cells were cultured for an additional 3 days. After 3 days the old medium was discarded and 5 ml fresh medium was added, and the sample was further added thereto. After this exchange of the medium, the cells were further cultured for another 3 days. Then cells were removed with trypsin and the number of cells in each bottle was counted with a Coultar counter. Simultaneously, as the control, only ethanol was added and the NB1RGB cells were cultured and the number of cells were counted in the same manner. The number of cells in each bottle to which the sample had been added was determined as a relative value to the number (as 100) of cells in the control after cultured, and the results are shown in Table 8.

CC1=C(CCC(C)CC(=O)O)C2(C)CCCC(C)(C)C2CC1 (stereo not drawn) [Compound 1, labd-8-en-15-oic acid]
Degree of cell proliferation (B16 melanoma cells [1]): 115% | Degree of melanin inhibition (B16 melanoma cells [1]): 22% | Degree of inhibition of mushroom tyrosinase [2]: 0% | Degree of inhibition of tyrosinase in B16 melanoma cells [3]: 0% | Degree of melanin inhibition (B16 melanoma cells [4]; 3.1 ppm, 3 days): 80% | Degree of cell proliferation (B16 melanoma cells [4]; 3.1 ppm): 109% | MIC [5]: 6.3 ppm | MIC [6]: 12.5 ppm | MIC [7]: 6.3 ppm | MIC [8]: 12.5 ppm | MIC [9]: 6.3 ppm | MIC [10]: 6.3 ppm | MIC [11]: 6.3 ppm | MIC [12]: 12.5 ppm | MIC [13]: 6.3 ppm

O=c1cc(CO)occ1O [Kojic acid, reference compound]
Degree of inhibition of mushroom tyrosinase [2]: 67% | Degree of cell proliferation (B16 melanoma cells [4]; 200.00 ppm): 94% | inhibition at 200 ppm (B16 melanoma cells [4]; Mus musculus, 72 h, 200.00 ppm, 3 days, read-out: Degree of melanin inhibition): 34% | ΔΔL ([14]; Day 14): 1.32 | ΔΔL ([14]; Day 28): 1.52 | ΔΔL ([14]; Day 35): 1.40

labden-15-oic acid [Compound 10]
Degree of cell proliferation of fibroblasts [15]: 126% | Degree of melanin inhibition (B16 melanoma cells [4]; 6.3 ppm, 3 days): 83% | Degree of cell proliferation (B16 melanoma cells [4]; 6.3 ppm): 97% | MIC [5]: 6.3 ppm | MIC [6]: 12.5 ppm | MIC [7]: 6.3 ppm | MIC [8]: 6.3 ppm | MIC [9]: 6.3 ppm | MIC [10]: 6.3 ppm | MIC [11]: 6.3 ppm | MIC [12]: 6.3 ppm | MIC [13]: 6.3 ppm
